The results in this text go back to publication PMC7907646, “Identification of a Novel Pattern Recognition Receptor DM9 Domain Containing Protein 4 as a Marker for Pro-Hemocyte of Pacific Oyster Crassostrea gigas” (Frontiers in Immunology, 2021).

For this assay, the target named is T1, CgDM9CP-4 (rCgDM9CP-4) (Magallana gigas, UniProt A0A8W8N023).
T1 construct: full ORF, 145 residues, two tandem DM9 domains, predicted 16 kDa (~18 kDa on gel); pET-30a (NdeI/XhoI), His tag, E. coli Transetta (DE3), Ni column
The assay can be described thus: ELISA on mannose-coated plate, one-site fit. It counts as binding. Conditions: apparent Kd; mannose coated at 20 μg in pH 9.6 buffer; 5 mmol L^-1 CaCl2, 0.1 mg mL^-1 BSA, 37°C; anti-His detection.

T1 sequence (A0A8W8N023 entry or part of it): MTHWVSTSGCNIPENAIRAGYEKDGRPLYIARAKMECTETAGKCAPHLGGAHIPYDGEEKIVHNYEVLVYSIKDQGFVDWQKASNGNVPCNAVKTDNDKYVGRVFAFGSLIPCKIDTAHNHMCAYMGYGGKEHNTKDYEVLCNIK

`OC[C@H]1OC(O)[C@@H](O)[C@@H](O)[C@@H]1O` (stereo partly shown) [Mannose]: the Kd worked out at 90 nM.
